Measured values as given in patent US11452727B2, “Combination therapy for treating cancer” (Epizyme, Inc., priority 2017, dated 2022).

Columns and labels:
Test in all cases: In vitro combination study with tazemetostat, cell proliferation (Cell Titer Glo)
NCI-H661 = details: 7 days tazemetostat pre-treatment, 6 days co-treatment with second agent
Protocol: (§1) Initial proliferation studies were performed to determine the IC50 of tazemetostat in each cell line. For the screen, tazemetostat was used at concentrations bracketed around the IC50 value. If 50% inhibitory concentration was not reached then tazemetostat was tested starting at 10 μM.
(§2) In order to study the effect of dual combination of tazemetostat and a second agent on cell proliferation, cells in log-linear phase growth rate were pre-treated with various concentrations of tazemetostat or DMSO for 7 days in flasks, plated in 384-well plates in the absence of compounds and co-treated on day 8 with tazemetostat or DMSO and the second agent serially diluted for additional 6 days (as depicted in FIG. 1). On day 15, plates were developed for endpoint analysis using Cell Titer Glo to measure ATP content, which was used as an indicator of cell viability. DMSO concentration was kept constant throughout the assay at 0.15% v/v.
(§3) All cell lines were obtained from American Type Culture Collection (ATCC; Rockville, Md.). […] A427, Calu-3, Calu-6 cell lines were cultured in EMEM+10% Fetal bovine serum (FBS)+1% v/v Penicillin/Streptomycin (P/S).

NCI-H2122 = details: 7 days tazemetostat pre-treatment, 6 days co-treatment with second agent
NCI-H838 = details: 7 days tazemetostat pre-treatment, 6 days co-treatment with second agent
NCI-H2110 = details: 7 days tazemetostat pre-treatment, 6 days co-treatment with second agent
Protocol: as §1, §2

NCI-H1793 = details: 7 days tazemetostat pre-treatment, 6 days co-treatment with second agent
Protocol: as §1, §2
(§4) NCI-H1573 was cultured in DMEM: F12 Medium containing the following components: 0.02 mg/ml insulin, 0.01 mg/ml transferrin, 25 nM sodium selenite, 50 nM Hydrocortisone, 1 ng/ml Epidermal Growth Factor, 0.01 mM ethanolamine, 0.01 mM phosphorylethanolamine, 100 pM triiodothyronine, 0.5% (w/v) bovine serum albumin, 0.5 mM sodium pyruvate, 4.5 mM L-glutamine and 1% v/v Pen/Strep.

A549 = details: 7 days tazemetostat pre-treatment, 6 days co-treatment with second agent
NCI-H1299 = details: 7 days tazemetostat pre-treatment, 6 days co-treatment with second agent
Protocol: as §1, §2

NCI-H2030 = details: 7 days tazemetostat pre-treatment, 6 days co-treatment with second agent
Protocol: as §1, §2

Calu-3 = details: 7 days tazemetostat pre-treatment, 6 days co-treatment with second agent
NCI-H1703 = details: 7 days tazemetostat pre-treatment, 6 days co-treatment with second agent
Protocol: as §1, §2

NCI-H1993 = details: 7 days tazemetostat pre-treatment, 6 days co-treatment with second agent
Protocol: as §1, §2

Calu-6 = details: 7 days tazemetostat pre-treatment, 6 days co-treatment with second agent
Protocol: as §1, §2

NCI-H23 = details: 7 days tazemetostat pre-treatment, 6 days co-treatment with second agent
HCC827 = details: 7 days tazemetostat pre-treatment, 6 days co-treatment with second agent
Protocol: as §1, §2, §4

NCI-H1573 = details: 7 days tazemetostat pre-treatment, 6 days co-treatment with second agent
Protocol: as §1, §2, §4

A427 = details: A427; 7 days tazemetostat pre-treatment, 6 days co-treatment with second agent
Protocol: as §1, §2, §3

NCI-H460 = details: 7 days tazemetostat pre-treatment, 6 days co-treatment with second agent
NCI-H522 = details: 7 days tazemetostat pre-treatment, 6 days co-treatment with second agent
Protocol: as §1, §2

| SMILES | combinatorial effect with tazemetostat (Loewe volume class) (NCI-H661) | combinatorial effect with tazemetostat (Loewe volume class) (NCI-H2122) | combinatorial effect with tazemetostat (Loewe volume class) (NCI-H838) | combinatorial effect with tazemetostat (Loewe volume class) (NCI-H2110) | combinatorial effect with tazemetostat (Loewe volume class) (NCI-H1793) | combinatorial effect with tazemetostat (Loewe volume class) (A549) | combinatorial effect with tazemetostat (Loewe volume class) (NCI-H1299) | combinatorial effect with tazemetostat (Loewe volume class) (NCI-H2030) | combinatorial effect with tazemetostat (Loewe volume class) (Calu-3) | combinatorial effect with tazemetostat (Loewe volume class) (NCI-H1703) | combinatorial effect with tazemetostat (Loewe volume class) (NCI-H1993) | combinatorial effect with tazemetostat (Loewe volume class) (Calu-6) | combinatorial effect with tazemetostat (Loewe volume class) (NCI-H23) | combinatorial effect with tazemetostat (Loewe volume class) (HCC827) | combinatorial effect with tazemetostat (Loewe volume class) (NCI-H1573) | combinatorial effect with tazemetostat (Loewe volume class) (A427) | combinatorial effect with tazemetostat (Loewe volume class) (NCI-H460) | combinatorial effect with tazemetostat (Loewe volume class) (NCI-H522) |
| --- | --- | --- | --- | --- | --- | --- | --- | --- | --- | --- | --- | --- | --- | --- | --- | --- | --- | --- |
| CC(=O)Nc1cccc(-n2c(=O)n(C3CC3)c(=O)c3c(Nc4ccc(I)cc4F)n(C)c(=O)c(C)c32)c1 [Trametinib, trametinib] | Add. (A value between −1 and 1 denoted “additivity”) | Anta. (volumes <−1 denoted “antagonism”) | Syn. (Loewe volumes greater than 1 denoted “synergy”) | Syn. (Loewe volumes greater than 1 denoted “synergy”) | Syn. (Loewe volumes greater than 1 denoted “synergy”) | Anta. (volumes <−1 denoted “antagonism”) | Syn. (Loewe volumes greater than 1 denoted “synergy”) | Syn. (Loewe volumes greater than 1 denoted “synergy”) | Syn. (Loewe volumes greater than 1 denoted “synergy”) | Syn. (Loewe volumes greater than 1 denoted “synergy”) | Syn. (Loewe volumes greater than 1 denoted “synergy”) | Add. (A value between −1 and 1 denoted “additivity”) | Add. (A value between −1 and 1 denoted “additivity”) | Syn. (Loewe volumes greater than 1 denoted “synergy”) | Syn. (Loewe volumes greater than 1 denoted “synergy”) | Syn. (Loewe volumes greater than 1 denoted “synergy”) | Anta. (volumes <−1 denoted “antagonism”) | Syn. (Loewe volumes greater than 1 denoted “synergy”) |
| O=C(CCCCCCC(=O)Nc1ccccc1)NO [Vorinostat, vorinostat] | Add. (A value between −1 and 1 denoted “additivity”) | Add. (A value between −1 and 1 denoted “additivity”) | Add. (A value between −1 and 1 denoted “additivity”) | Add. (A value between −1 and 1 denoted “additivity”) | Syn. (Loewe volumes greater than 1 denoted “synergy”) | Add. (A value between −1 and 1 denoted “additivity”) | Add. (A value between −1 and 1 denoted “additivity”) | Syn. (Loewe volumes greater than 1 denoted “synergy”) | Add. (A value between −1 and 1 denoted “additivity”) | Syn. (Loewe volumes greater than 1 denoted “synergy”) | Add. (A value between −1 and 1 denoted “additivity”) | Syn. (Loewe volumes greater than 1 denoted “synergy”) | Syn. (Loewe volumes greater than 1 denoted “synergy”) | Add. (A value between −1 and 1 denoted “additivity”) | Syn. (Loewe volumes greater than 1 denoted “synergy”) | Syn. (Loewe volumes greater than 1 denoted “synergy”) | Syn. (Loewe volumes greater than 1 denoted “synergy”) | Syn. (Loewe volumes greater than 1 denoted “synergy”) |
